# Measurements reported in EP0429304A2, “Pyridone-carboxylic acid derivatives and their use as veterinary medicines” (SHIONOGI SEIYAKU KABUSHIKI KAISHA trading under the name of …, priority 1989, dated 1991).
# Like-named read-outs stand apart in the source and are kept apart here.
# Experiments:
# [1] = test system: Mycoplasma synoviae (MS) 1853; experiment: In vitro sensitivity test (liquid dilution method); assay type: cell-based; conditions: 37°C, 7 days
# Procedure, shortened: (§1)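 Mycoplasma synoviae strains tested by liquid dilution in Frey medium with 12% pig serum and 0.01% βNAD, 37 °C for 7 days. P. piscicida grown on heart infusion agar with 1.5% NaCl, 25 °C for 40–48 h.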
# [2] = test system: Mycoplasma gallisepticum (MG) S6; experiment: In vitro sensitivity test (liquid dilution method); assay type: cell-based; conditions: 37°C, 7 days
# [3] = test system: Mycoplasma gallisepticum (MG) T-7-T, TS-resistant strain isolated from the field; experiment: In vitro sensitivity test (liquid dilution method); assay type: cell-based; conditions: 37°C, 7 days
# [4] = test system: Mycoplasma hyopneumoniae (Mh) ST-11; experiment: In vitro sensitivity test (liquid dilution method); assay type: cell-based; conditions: 37°C, 7 days
# [5] = test system: Mycoplasma synoviae (MS) F10-2as; experiment: In vitro sensitivity test (liquid dilution method); assay type: cell-based; conditions: 37°C, 7 days
# Procedure, shortened: as §1
# [6] = test system: H.pp (otherwise called Actinobacillus pleuropneumoniae) strain M-1; experiment: Experimental H.pp infection to pig, through injection; assay type: in vivo; conditions: injection to thigh muscle one time, Dose 5 mg/kg; dissection 6 days after inoculation
# Procedure: In these experiments, the compound (I) was applied to the designated animals by (1) oral administration, (2) incorporation into baits and (3) intramuscular injection, the details of which are explained below.
# (3) Preparation of the MG infected fowls was performed in the same manner as in (1) above. Infection of H.pp (otherwise called Actinobacillus pleuropneumoniae) to cause pleuropneumonia in pig was performed by inoculating 5 ml of a fresh cultured strain (i.e. M-1) of H.pp to each nasopharyngeal of some 45 days pigs, each weighing 4 to 9 kg (4 to 5 pigs/group), followed by injection of the test compounds to each thigh muscle at a designated volume one time. Pigs were dissected 6 days after the inoculation. The evaluation of the antimicrobial activity was made by observation of the pneumonia symptomes in air sacs, number of dead body and degree of nodosity in air sacks on dissection.
# [7] = test system: Hemophilus paragallinarum (H.pg) S-1; experiment: In vitro sensitivity test (agar dilution method); assay type: cell-based; conditions: agar dilution, 37°C, 20 hours, 10 % CO₂
# [8] = test system: Staphylococcus aureus (S.au) 209P; experiment: In vitro sensitivity test (agar dilution method); assay type: cell-based; conditions: 37°C, 20 to 24 hours
# Procedure, shortened: (§2)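 For the fish-origin P.pis strain this meant heart infusion agar supplemented with 1.5 % NaCl at 25°C for 40 to 48 hours. S.au plates used Mueller Hinton agar at 37°C for 20 to 24 hours. MS broths used Frey medium with 12 % pig-serum and 0.01 % βNAD at 37°C for 7 days.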
# [9] = test system: Salmonella typhimurium (S.typhi) 13311; experiment: In vitro sensitivity test (agar dilution method); assay type: cell-based; conditions: 37°C, 20 to 24 hours
# [10] = test system: Bordetella bronchiseptica (B.br) ABU-1; experiment: In vitro sensitivity test (agar dilution method); assay type: cell-based; conditions: 37°C, 20 to 24 hours
# [11] = test system: Escherichia coli (E.coli) E-17, chicken-origin strain isolated from the field; experiment: In vitro sensitivity test (agar dilution method); assay type: cell-based; conditions: 37°C, 20 to 24 hours
# Procedure, shortened: as §2
# [12] = test system: Escherichia coli (E.coli) JC-2; experiment: In vitro sensitivity test (agar dilution method); assay type: cell-based; conditions: 37°C, 20 to 24 hours
# [13] = test system: Hemophilus pleuropneumonia (H.pp) M-1; experiment: In vitro sensitivity test (agar dilution method); assay type: cell-based; conditions: 37°C, 20 hours, 10 % CO₂
# [14] = test system: Hemophilus paragallinarum (H.pg) 221; experiment: In vitro sensitivity test (agar dilution method); assay type: cell-based; conditions: agar dilution, 37°C, 20 hours, 10 % CO₂
# [15] = test system: TS-resistant strain of MG; assay type: in vivo, chicken; conditions: 9-days chicken; for Infectious index Left air sack + / Infectious index Left air sack ++ / Infectious index Left air sack +++ / Infectious index Left air sack - / Infectious index Right air sack + / Infectious index Right air sack ++ / Infectious index Right air sack +++ / Infectious index Right air sack -: count of fowl; for Infectious index Left air sack + / Infectious index Left air sack ++ / Infectious index Left air sack +++ / Infectious index Left air sack - / Infectious index Right air sack + / Infectious index Right air sack ++ / Infectious index Right air sack +++ / Infectious index Right air sack - / Number of fowl having air sack lesions: 1.7 x 10³ CFU/fowl; for Number of infected fowl/Number of fowl tested: 3.5 x 10³ CFU/fowl
structure (smiles),measurement,setting,value
Cl.Nc1c(F)c(N2C[C@@H]3CC[C@@H](N)[C@@H]3C2)c(F)c2c1c(=O)c(C(=O)O)cn2C1CC1 (relative stereo) [I-16],In vitro Sensitivity Test MS 1853,[1],0.39 µg/mL
same,In vitro Sensitivity Test MG S6,[2],<0.0313 µg/mL
same,In vitro Sensitivity Test MG T-7-T,[3],0.00313 µg/mL
same,In vitro Sensitivity Test Mh ST-11,[4],<0.025 µg/mL
same,In vitro Sensitivity Test MS F10-2as,[5],0.2 µg/ml
same,Number of pig having nodi/Number of pig tested,[6],0/4
same,In vitro Sensitivity Test H.pg S-1,[7],0.2 µg/mL
same,In vitro Sensitivity Test S.au 209P,[8],0.025 µg/mL
same,In vitro Sensitivity Test S.typhi 13311,[9],0.05 µg/mL
same,In vitro Sensitivity Test B.br ABU-1,[10],1.56 µg/mL
same,In vitro Sensitivity Test E.coli E-17,[11],0.025 µg/ml
same,In vitro Sensitivity Test E.coli JC-2,[12],0.05 µg/mL
same,In vitro Sensitivity Test H.pp M-1,[13],0.2 µg/mL
same,In vitro Sensitivity Test H.pg 221,[14],0.2 µg/mL
same,Infectious index Left air sack +,[15]; oral 6.25 mg/kg,0
same,Infectious index Left air sack ++,[15]; oral 6.25 mg/kg,0
same,Infectious index Left air sack +++,[15]; oral 6.25 mg/kg,0
same,Infectious index Left air sack -,[15]; oral 6.25 mg/kg,4
same,Infectious index Right air sack +,[15]; oral 6.25 mg/kg,0
same,Infectious index Right air sack ++,[15]; oral 6.25 mg/kg,3
same,Infectious index Right air sack +++,[15]; oral 6.25 mg/kg,0
same,Infectious index Right air sack -,[15]; oral 6.25 mg/kg,1
same,Infectious index Left air sack +,[15]; oral 12.5 mg/kg,0
same,Infectious index Left air sack ++,[15]; oral 12.5 mg/kg,0
same,Infectious index Left air sack +++,[15]; oral 12.5 mg/kg,0
same,Infectious index Left air sack -,[15]; oral 12.5 mg/kg,5
same,Infectious index Right air sack +,[15]; oral 12.5 mg/kg,0
same,Infectious index Right air sack ++,[15]; oral 12.5 mg/kg,0
same,Infectious index Right air sack +++,[15]; oral 12.5 mg/kg,0
same,Infectious index Right air sack -,[15]; oral 12.5 mg/kg,5
same,Infectious index Left air sack +,[15]; oral 25.0 mg/kg,0
same,Infectious index Left air sack ++,[15]; oral 25.0 mg/kg,0
same,Infectious index Left air sack +++,[15]; oral 25.0 mg/kg,0
same,Infectious index Left air sack -,[15]; oral 25.0 mg/kg,5
same,Infectious index Right air sack +,[15]; oral 25.0 mg/kg,0
same,Infectious index Right air sack ++,[15]; oral 25.0 mg/kg,0
same,Infectious index Right air sack +++,[15]; oral 25.0 mg/kg,0
same,Infectious index Right air sack -,[15]; oral 25.0 mg/kg,5
same,Number of infected fowl/Number of fowl tested,[15]; oral 1.56 mg/kg,5/5
same,Number of infected fowl/Number of fowl tested,[15]; oral 3.13 mg/kg,2/5
same,Number of fowl having air sack lesions,[15]; oral 6.25 mg/kg,3
same,Number of infected fowl/Number of fowl tested,[15]; oral 6.25 mg/kg,2/5
same,Number of fowl having air sack lesions,[15]; oral 12.5 mg/kg,0
same,Number of fowl having air sack lesions,[15]; oral 25.0 mg/kg,0
